Assay results as given in patent publication US20120270237A9, “METHODS FOR THE IDENTIFICATION OF KINASE INTERACTING MOLECULES AND FOR THE PURIFICATION OF KINASE PROTEINS” (Cellzone AG, priority 2009, published 2012).

Tests used:
[1] = target: MAP3K4 (Homo sapiens, UniProt Q9Y6R4); experiment: Kinobeads competition binding, L-363 cell lysate; design: endogenous in cells; host or cells: L-363 cells (DSMZ ACC49), treated with MG132 before harvest; details: 10 μM free compound, L-363 lysate
Description: (§1) To one aliquot of cell lysate 10 μM of the free compound (FIG. 3, CZC31326) was added and allowed to bind to proteins in the lysate. Then the affinity matrix with the immobilized compound was added to capture proteins that were not interacting with the previously added free compound. Beads were separated from the lysate and bead bound proteins were eluted in SDS sample buffer and subsequently separated by SDS-Polyacrylamide gel electrophoresis (FIG. 8). Suitable gel bands were cut out and subjected to in-gel proteolytic digestion with trypsin. The second lysate aliquot was processed identically, however no free compound was added (DMSO solvent control). Peptides originating from samples 1 and 2 were labeled with iTRAQ reagents (iTRAQ 114 and iTRAQ 117) and the combined samples were analyzed with a nano-flow liquid chromatography system coupled online to a tandem mass spectrometer (LC-MS/MS) experiment followed by iTRAQ reporter ion quantification in the MS/MS spectra as described in Example 2.
(§2) For this experiment the human plasma cell leukaemia line L-363 was used (German Collection of Microorganisms and Cell Cultures, DSMZ number ACC49, Braunschweig, Germany). Cells were treated for three hours with 20 μM of the proteasome inhibitor MG132 (Z-Leu-Leu-Leu-al, Sigma C2211) prior to cell harvesting.

[2] = target: MAP3K1 (Homo sapiens, UniProt Q13233); experiment: Kinobeads competition binding, L-363 cell lysate; design: endogenous in cells; host or cells: L-363 cells (DSMZ ACC49), treated with MG132 before harvest; details: 10 μM free compound, L-363 lysate
Chain of MAP3K1 (Q13233 whole entry): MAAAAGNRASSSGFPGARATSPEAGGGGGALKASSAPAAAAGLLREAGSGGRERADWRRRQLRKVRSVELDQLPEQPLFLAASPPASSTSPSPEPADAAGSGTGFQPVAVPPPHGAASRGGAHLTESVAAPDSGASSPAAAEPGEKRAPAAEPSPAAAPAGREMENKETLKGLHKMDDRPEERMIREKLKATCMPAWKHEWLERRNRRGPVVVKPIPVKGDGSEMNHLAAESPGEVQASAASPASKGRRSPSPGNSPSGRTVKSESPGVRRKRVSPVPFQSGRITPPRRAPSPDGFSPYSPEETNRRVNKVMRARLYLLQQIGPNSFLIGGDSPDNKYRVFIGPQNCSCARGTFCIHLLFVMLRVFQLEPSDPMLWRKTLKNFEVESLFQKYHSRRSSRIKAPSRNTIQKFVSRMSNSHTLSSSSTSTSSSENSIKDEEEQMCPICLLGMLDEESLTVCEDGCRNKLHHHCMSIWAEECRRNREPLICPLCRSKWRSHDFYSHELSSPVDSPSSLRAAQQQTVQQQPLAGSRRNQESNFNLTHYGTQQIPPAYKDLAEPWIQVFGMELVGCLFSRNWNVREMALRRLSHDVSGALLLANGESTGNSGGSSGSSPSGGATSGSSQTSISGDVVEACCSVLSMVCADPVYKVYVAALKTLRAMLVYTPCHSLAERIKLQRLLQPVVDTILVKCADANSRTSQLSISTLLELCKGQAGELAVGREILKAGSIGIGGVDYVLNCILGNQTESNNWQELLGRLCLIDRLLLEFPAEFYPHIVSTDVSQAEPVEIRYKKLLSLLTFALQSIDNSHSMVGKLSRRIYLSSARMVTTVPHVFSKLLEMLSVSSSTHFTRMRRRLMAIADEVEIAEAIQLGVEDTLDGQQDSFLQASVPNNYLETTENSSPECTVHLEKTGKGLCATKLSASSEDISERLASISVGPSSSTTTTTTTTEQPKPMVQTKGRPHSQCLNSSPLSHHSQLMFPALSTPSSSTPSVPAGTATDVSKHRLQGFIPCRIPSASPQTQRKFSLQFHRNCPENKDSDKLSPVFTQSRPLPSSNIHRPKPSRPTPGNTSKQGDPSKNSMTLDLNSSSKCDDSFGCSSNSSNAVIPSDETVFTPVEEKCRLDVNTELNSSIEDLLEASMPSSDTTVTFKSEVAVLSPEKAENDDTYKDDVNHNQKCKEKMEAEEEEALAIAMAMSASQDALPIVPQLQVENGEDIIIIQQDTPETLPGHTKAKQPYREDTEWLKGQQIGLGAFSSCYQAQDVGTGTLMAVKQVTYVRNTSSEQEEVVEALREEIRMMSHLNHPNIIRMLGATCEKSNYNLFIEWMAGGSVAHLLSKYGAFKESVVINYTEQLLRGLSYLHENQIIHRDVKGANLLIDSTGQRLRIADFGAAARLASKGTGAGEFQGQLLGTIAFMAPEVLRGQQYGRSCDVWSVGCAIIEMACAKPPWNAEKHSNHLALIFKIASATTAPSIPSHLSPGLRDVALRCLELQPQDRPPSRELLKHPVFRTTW
Description: as §1, §2

[3] = target: MAP3K3 (Homo sapiens, UniProt Q99759); experiment: Kinobeads competition binding, L-363 cell lysate; design: endogenous in cells; host or cells: L-363 cells (DSMZ ACC49), treated with MG132 before harvest; details: 10 μM free compound, L-363 lysate
Chain of MAP3K3 (Q99759 whole entry): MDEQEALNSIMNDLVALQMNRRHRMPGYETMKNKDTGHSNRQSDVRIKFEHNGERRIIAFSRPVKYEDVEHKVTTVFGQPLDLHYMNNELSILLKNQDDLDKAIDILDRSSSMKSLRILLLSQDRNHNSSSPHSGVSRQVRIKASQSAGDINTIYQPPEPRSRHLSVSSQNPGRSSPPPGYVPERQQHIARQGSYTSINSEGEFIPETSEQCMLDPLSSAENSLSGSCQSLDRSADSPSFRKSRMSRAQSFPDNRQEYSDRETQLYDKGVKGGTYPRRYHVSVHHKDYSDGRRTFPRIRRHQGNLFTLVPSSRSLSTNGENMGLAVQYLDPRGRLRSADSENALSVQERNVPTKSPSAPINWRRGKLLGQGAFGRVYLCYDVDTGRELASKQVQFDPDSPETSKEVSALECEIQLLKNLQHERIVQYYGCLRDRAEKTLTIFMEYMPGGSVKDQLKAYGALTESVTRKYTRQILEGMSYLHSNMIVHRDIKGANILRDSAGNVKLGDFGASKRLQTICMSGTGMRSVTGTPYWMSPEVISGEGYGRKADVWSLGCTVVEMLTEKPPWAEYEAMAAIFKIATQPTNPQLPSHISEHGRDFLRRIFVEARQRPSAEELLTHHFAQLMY
Description: as §1, §2

[4] = target: T1, MAP3K2 (Homo sapiens, UniProt Q9Y2U5); experiment: Kinobeads competition binding, HL60 cell lysate; design: endogenous in cells; host or cells: HL60 cell lysate; details: 10 μM free compound
T1 sequence (Q9Y2U5 1-619): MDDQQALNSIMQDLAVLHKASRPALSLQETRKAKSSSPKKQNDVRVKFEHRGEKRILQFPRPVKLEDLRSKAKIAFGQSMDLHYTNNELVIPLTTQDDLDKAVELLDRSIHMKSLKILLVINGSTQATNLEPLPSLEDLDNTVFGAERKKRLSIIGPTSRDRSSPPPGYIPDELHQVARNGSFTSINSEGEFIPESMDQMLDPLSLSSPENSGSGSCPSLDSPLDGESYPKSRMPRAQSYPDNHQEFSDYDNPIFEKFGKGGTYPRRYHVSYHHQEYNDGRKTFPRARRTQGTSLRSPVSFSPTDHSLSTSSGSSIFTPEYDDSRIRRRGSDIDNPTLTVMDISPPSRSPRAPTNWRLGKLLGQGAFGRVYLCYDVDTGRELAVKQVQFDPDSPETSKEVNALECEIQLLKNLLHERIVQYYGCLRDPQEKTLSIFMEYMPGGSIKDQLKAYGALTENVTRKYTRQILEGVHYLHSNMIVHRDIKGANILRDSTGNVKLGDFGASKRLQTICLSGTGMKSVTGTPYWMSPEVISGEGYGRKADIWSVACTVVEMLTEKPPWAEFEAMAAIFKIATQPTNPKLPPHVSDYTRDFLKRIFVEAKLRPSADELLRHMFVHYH
Description: To one aliquot of cell lysate 10 μM of the free compound (FIG. 3, CZC31326) was added and allowed to bind to proteins in the lysate. Then the affinity matrix with the immobilized compound (Example 1) was added to capture proteins that were not interacting with the previously added free compound. Beads were separated from the lysate and bead bound proteins were eluted in SDS sample buffer and subsequently separated by SDS-Polyacrylamide gel electrophoresis (FIG. 4). Suitable gel bands were cut out and subjected to in-gel proteolytic digestion with trypsin. The second lysate aliquot was processed identically, however no free compound was added (DMSO solvent control). Peptides originating from samples 1 and 2 were labeled with iTRAQ reagents (iTRAQ 114 and iTRAQ 117) and the combined samples were analyzed with a nano-flow liquid chromatography system coupled online to a tandem mass spectrometer (LC-MS/MS) experiment followed by iTRAQ reporter ion quantification in the MS/MS spectra (Ross et al., 2004. Mol. Cell. Proteomics 3(12):1154-1169). Further experimental protocols can be found in WO2006/134056 and a previous publication (Bantscheff et al., 2007. Nature Biotechnology 25, 1035-1044). Sepharose-beads with the immobilized compound (100 μl beads per pull-down experiment) were equilibrated in lysis buffer and incubated with a cell lysate sample containing 50 mg of protein on an end-over-end shaker (Roto Shake Genie, Scientific Industries Inc.) for 2 hours at 4° C. […] The iTRAQ reagents are a set of multiplexed, amine-specific, stable isotope reagents that can label peptides on amino groups in up to four different biological samples enabling simultaneous identification and quantitation of peptides. […] Relative protein quantitation was performed using peak areas of iTRAQ reporter ion signals essentially as described in an earlier publication (Bantscheff et al., 2007. Nature Biotechnology 25, 1035-1044).

Chain of MAP3K4 (Q9Y6R4 whole entry): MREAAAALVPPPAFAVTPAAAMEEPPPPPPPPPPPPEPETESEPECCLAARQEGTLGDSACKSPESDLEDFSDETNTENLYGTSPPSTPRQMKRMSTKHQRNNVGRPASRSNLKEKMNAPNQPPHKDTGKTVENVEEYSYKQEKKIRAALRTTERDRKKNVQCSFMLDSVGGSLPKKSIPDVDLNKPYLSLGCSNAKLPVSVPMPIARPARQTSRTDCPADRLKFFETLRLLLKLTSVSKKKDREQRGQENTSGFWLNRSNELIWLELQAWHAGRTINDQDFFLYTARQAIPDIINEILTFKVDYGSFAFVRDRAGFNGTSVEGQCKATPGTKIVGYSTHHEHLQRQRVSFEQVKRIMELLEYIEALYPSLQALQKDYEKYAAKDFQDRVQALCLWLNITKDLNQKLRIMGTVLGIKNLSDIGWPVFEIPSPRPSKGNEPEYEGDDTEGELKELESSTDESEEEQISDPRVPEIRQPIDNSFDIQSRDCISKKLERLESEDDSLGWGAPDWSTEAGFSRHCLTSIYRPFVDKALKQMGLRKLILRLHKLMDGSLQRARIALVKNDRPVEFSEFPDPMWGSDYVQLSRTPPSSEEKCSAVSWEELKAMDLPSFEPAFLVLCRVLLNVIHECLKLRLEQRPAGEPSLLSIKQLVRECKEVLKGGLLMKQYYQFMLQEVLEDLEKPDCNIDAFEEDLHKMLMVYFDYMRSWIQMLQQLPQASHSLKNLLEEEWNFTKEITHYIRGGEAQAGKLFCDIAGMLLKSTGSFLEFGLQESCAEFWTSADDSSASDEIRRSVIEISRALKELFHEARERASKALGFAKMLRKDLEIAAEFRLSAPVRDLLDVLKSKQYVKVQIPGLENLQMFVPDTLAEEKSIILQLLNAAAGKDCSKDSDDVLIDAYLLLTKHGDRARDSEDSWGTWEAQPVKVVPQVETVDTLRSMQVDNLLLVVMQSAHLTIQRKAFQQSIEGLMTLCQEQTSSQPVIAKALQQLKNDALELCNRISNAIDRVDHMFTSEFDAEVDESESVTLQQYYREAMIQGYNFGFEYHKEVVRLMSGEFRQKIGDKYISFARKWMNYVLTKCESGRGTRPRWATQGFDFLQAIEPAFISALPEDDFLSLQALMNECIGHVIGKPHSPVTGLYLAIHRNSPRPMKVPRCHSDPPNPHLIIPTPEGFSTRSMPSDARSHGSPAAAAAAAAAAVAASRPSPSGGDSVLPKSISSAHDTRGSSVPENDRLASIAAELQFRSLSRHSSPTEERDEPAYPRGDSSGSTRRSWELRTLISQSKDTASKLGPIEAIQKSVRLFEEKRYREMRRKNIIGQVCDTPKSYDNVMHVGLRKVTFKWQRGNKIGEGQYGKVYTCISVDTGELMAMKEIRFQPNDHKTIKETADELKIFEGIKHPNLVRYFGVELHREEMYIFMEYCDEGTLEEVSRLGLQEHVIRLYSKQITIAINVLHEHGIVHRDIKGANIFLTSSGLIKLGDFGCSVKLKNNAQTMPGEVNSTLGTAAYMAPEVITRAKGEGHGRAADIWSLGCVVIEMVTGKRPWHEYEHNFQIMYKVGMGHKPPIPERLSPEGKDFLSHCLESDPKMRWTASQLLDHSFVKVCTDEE

Q: For `CS(=O)(=O)Nc1ccccc1Nc1nc(Nc2cccc(OCCN)c2)ncc1Cl` [CZC31326, N-(2-(2-(3-(2-aminoethoxy)phenylamino)-5-chloropyrimidin-4-ylamino)phenyl)methanesulfonamide], which inhibition at 10 µM [1] is on record?
A: Its inhibition at 10 µM is 95.8%.

Q: What about the inhibition at 10 µM [2] of the same molecule?
A: Its inhibition at 10 µM is 96.2%.

Q: What about the inhibition at 10 µM [3] of the same molecule?
A: Its inhibition at 10 µM is 97.4%.

Q: And the inhibition at 10 µM [4]?
A: Its inhibition at 10 µM is 96.3%.
